Measurements from patent US20050009868A1, “Retinoid receptor pan-antagonists for stimulating chondrogenesis” (priority 2001, published 2005).
pIC50: −log10 of the molar value. Where two headings read alike, the source gives them in different places.

Assays:
pGL3(4×48) Sox9 reporter = assay: Sox9 reporter (pGL3(4×48)) luciferase assay in transiently transfected primary limb mesenchymal cultures; assay type: cell-based, mouse; details: for effect on the antagonist-induced increase in Sox9 reporter activity (in words): co-treatment with AGN194301 or AGN194310
Text: The Sox9 responsive reporter (herein referred to as the Sox9 reporter) was generated by subcloning a fragment containing a reiterated (4×48) Sox9 binding sequence coupled to the mouse Col2a1 minimal promoter (−89 to +6) into pGL3. The fragment containing the 4×48 repeat and minimal promoter was isolated as a BamH I/Hind III fragment from the original 4×48-p89Luc reporter plasmid previously described (Lefebvre et al., 1997), and was subcloned into the BgI II and Hind III sites of pGL3-basic (Promega) to generate pGL3(4×48). The reporter pW1-Col2-Luc was generated from the original p309i(182×2)βgeoCol2a1 (Zhou et al., 1995) by subcloning the regulatory region (consisting of a 309-bp promoter region and two tandem repeats of a 182-bp intron-1 fragment) into pW1 (Balkan et al., 1992) as an EcoR I/BamH I fragment. A BgI II fragment containing the luciferase gene isolated from pJD205 (de Wet et al., 1987) was subcloned into the BamH I site of pW1-Col2 to generate pW1-Col2-Luc. The pcDNA3-hSox9 expression vector was as described (Lefebvre et al., 1997). To generate a mutated form of hSox9, hSox9 was subcloned into pKSII (Stratagene) and serine 181 was replaced with alanine, using the Quick-Change XL system (Stratagene) with the following overlapping primers: 5′-[…]-3′, and 5′-[…]-3′. Following mutagenesis, the Sox9 mutant and wt Sox9 were subcloned into pcDNA3, and the serine-alanine conversion was confirmed by sequencing.
(§1) Limb mesenchymal cells were harvested from embryonic age 11.25-11.75 mouse embryos as previously described (Weston et al., 2000). The cells were resuspended at a density of about 2.5×10^7 cells/ml prior to transfections, otherwise they were resuspended at 1.5×10^7 cells/ml. For transfection purposes, cells were mixed with a DNA/FuGene6 mixture in a 2:1 ratio. FuGene6-DNA mixtures were prepared according to the manufacturer's instructions (Roche Biomolecular). Briefly, 1 μg of reporter, 1 μg of expression vector and 0.05 μg of pRLSV40 (Promega) were mixed for a total of about 2 μg DNA in 100 μL of media and FuGene6. Fifty microlitres of the DNA mixture was transferred into a sterile 1.5 ml eppendorf tube, followed by 100 μl of cells. Cells were gently triturated and 10 μl was used to seed each single well of a 24-well culture dish. After 1.5 hrs in a humidified CO2 incubator, 1 ml of media containing compounds of interest was added to each well and was subsequently replaced 24 hours following transfection. All-trans RA (at-RA; Sigma), AGN193836 (Teng et al., 1996), AGN194301 (Teng et al., 1997) and AGN194310 (Johnson et al., 1999)(Allergan Inc.) were dissolved in 95% ethanol. SB202190 and SB203580 (Calbiochem) and H89 (Sigma) were dissolved in dimethyl sulfoxide (DMSO) (BDH). 8-(4-chlorophenylthio)-cAMP (pCPT-cAMP, Sigma) was dissolved in water just prior to use.
(§2) Analysis of reporter gene activity using the Dual Luciferase Assay System was done following the manufacturer's instructions (Promega). Briefly, approximately 48 hours following the transfections, cells were washed once with PBS and lysed in 100 μl of Passive Lysis Buffer for 20 minutes. Firefly and renilla luciferase activities were determined using 40 μl of lysate in a 96-well plate-reading luminometer (Molecular Devices). Alcian blue staining of cultures was carried out as described previously (Cash et al., 1997).

[1] = test system: RA response element (pW1-βRARE3-Luc); assay: Retinoic acid responsive reporter (pW1-βRARE3-Luc) luciferase assay in primary limb mesenchymal cells; assay type: cell-based, mouse; details: for effect on RARE reporter activity (in words): concentration series
Method: as §1, §2

[2] = test system: primary limb mesenchymal cultures; assay: Cartilage nodule formation in primary limb mesenchymal cultures (alcian blue staining); assay type: cell-based, mouse
Method: as §1, §2

IL-2 gene expression = details: Koyama et al., 2000; read-out: IC50 for inhibition of IL-2 gene expression; cited from earlier work
Sox9 mRNA = assay: Northern blot of Sox9 mRNA in limb mesenchymal cultures; assay type: cell-based, mouse; details: 1 μM, 2-day cultures
Method: Northern blots were carried out using total RNA from limb mesenchymal cultures, as previously described (Weston et al., 2000). Briefly, total RNA was extracted from cells cultured for 2, 4, 6 or 8 days. Cells were treated with media alone or with AGN 194301. Synthesis of the Col2a1 cDNA fragment used was as described previously (Weston et al., 2000). The Sox9 cDNA probe was made using an EST clone, GenBank accession number Al594348 (Research Genetics). The Sox9 fragment was released from pT7T3 using Eco RI and Not I.

[3] = test system: primary limb mesenchymal cultures; details: earlier work, Weston et al., 2000; cited from earlier work
[4] = day 4 alcian blue-stained cultures
[5] = 10 μM, versus untreated control cultures

Nc1ncnc2c1nc(Sc1ccc(Cl)cc1)n2[C@@H]1O[C@@H]2COP(=O)(O)O[C@H]2[C@H]1O [pCPT-cAMP, 8-(4-chlorophenylthio)-cAMP]
increase in Sox9 reporter activity (pGL3(4×48) Sox9 reporter; 500 μM, absence of exogenous Sox9): about 4.5 fold | further increase in Sox9 reporter activity (pGL3(4×48) Sox9 reporter; co-transfection with wt Sox9 or Sox9-181A): < 1.5 fold

CC(/C=C/C(=O)NO)=C\[C@@H](C)C(=O)c1ccc(N(C)C)cc1 [TSA, Trichostatin A]
effect on the antagonist-induced increase in Sox9 reporter activity (in words) (pGL3(4×48) Sox9 reporter): attenuated the 310-induced increase | effect on Sox9 reporter activity (in words) (pGL3(4×48) Sox9 reporter; concentration series): dose-dependent decrease in Sox9 reporter activity | effect on RARE reporter activity (in words) [1]: enhanced activity of the pW1-αRARE3tkLuc reporter in a concentration-dependent manner | cartilage nodule formation (in words) [2, 4]: decrease in the number of cartilage nodules | pIC50 (IL-2 gene expression): 7.14

CC1=C(/C=C/C(C)=C/C=C/C(C)=C/C(=O)O)C(C)(C)CCC1 [at-RA, All-trans RA]
Sox9 reporter activity reduced to (% of control) (pGL3(4×48) Sox9 reporter; at 5 nM): 53% | effect on Sox9 reporter activity (in words) (pGL3(4×48) Sox9 reporter; concentration series): attenuated reporter activity | effect on RARE reporter activity (in words) [1]: activated the RARβ reporter to a greater extent than about 836 | cartilage nodule formation (in words) [2, 4]: more potent inhibitor of cartilage nodule formation than 836

Oc1ccc(-c2nc(-c3ccncc3)c(-c3ccc(F)cc3)[nH]2)cc1 [SB202190]
effect on Sox9 reporter activity (in words) (pGL3(4×48) Sox9 reporter; 5 or 10 μM): decrease in Sox9 reporter activity compared to untreated controls | effect on the antagonist-induced increase in Sox9 reporter activity (in words) (pGL3(4×48) Sox9 reporter): attenuated the chondrogenic response to AGN194301 | cartilage nodule formation (in words) [2, 5]: almost no cartilage nodules form

CCc1ccc(C2=CC(C)(C)Sc3ccc(C#Cc4ccc(C(=O)O)cc4)cc32)cc1 [AGN194310]
maximal induction of Sox9 reporter activity (pGL3(4×48) Sox9 reporter; at 50 nM, primary limb mesenchymal cells): ~530% | concentration inducing Sox9 reporter activity greater than the maximal response elicited by 301 (pGL3(4×48) Sox9 reporter; concentrations as low as): ≥ 10 nM | effect on RARE reporter activity (in words) [1]: attenuated by 310 more effectively than by 301 | concentration at which increase in nodule formation can be observed ([2]; treatment for 4 days, alcian blue): 10 nM

Cc1ccc(C2=CC(C)(C)Oc3c(Br)cc(C(=O)Nc4ccc(C(=O)O)c(F)c4)cc32)cc1 [AGN194301, 2-Fluoro-4-[(1-(8-bromo-2,2-dimethyl-4-(4-methylphenyl)-2-H-chromen-6-yl)-methanoyl)-amino]-benzoic acid]
concentrations giving significant differences in Sox9 reporter activity (Bonferroni post-tests) (pGL3(4×48) Sox9 reporter; FIG. 1A, P at least <0.05): ≥ 100 nM | greatest induction of Sox9 reporter activity (pGL3(4×48) Sox9 reporter; at 1 μM, primary limb mesenchymal cells): about 280% | effect on Sox9 reporter activity (in words) (pGL3(4×48) Sox9 reporter; concentration series): concentration-dependent increase in reporter activity | concentrations inducing significant changes in activity of the RARE reporter (Bonferroni post-tests) ([1]; FIG. 1B, P at least <0.05): ≥ 100 nM | Sox9 mRNA expression (in words) (Sox9 mRNA): noticeable increase in Sox9 mRNA | cartilage nodule formation (in words) [3]: substantial increase in the number of cartilage nodules

O=S(=O)(NCCNC/C=C/c1ccc(Br)cc1)c1cccc2cnccc12 [H89]
effect on Sox9 reporter activity (in words) (pGL3(4×48) Sox9 reporter; 10 μM, absence of exogenous Sox9): repressed reporter activity | effect on the antagonist-induced increase in Sox9 reporter activity (in words) (pGL3(4×48) Sox9 reporter): reduced Sox9 reporter activity both in the presence or absence of AGN194301 or dnRARα | effect on Sox9 reporter activity (in words) (pGL3(4×48) Sox9 reporter; presence of co-transfected Sox9): slightly decreased reporter activity | cartilage nodule formation (in words) [2, 5]: fewer nodules are detected compared to untreated cultures
